Experimental data from patent US9441012B2, “Fluorinated epoxyketone-based compounds and uses thereof as proteasome inhibitors” (FLUORINOV PHARMA INC., priority 2012, dated 2016).

Assays:
MOLT-4 = assay: NCI 60 human tumor cell line screen (SRB); type: cell-based; details: MOLT-4 (Leukemia); 48 h
SR = assay: NCI 60 human tumor cell line screen (SRB); type: cell-based; details: SR (Leukemia); 48 h
HOP-62 = assay: NCI 60 human tumor cell line screen (SRB); type: cell-based; details: HOP-62 (Non-Small Cell Lung Cancer); 48 h
CAKI-1 = assay: NCI 60 human tumor cell line screen (SRB); type: cell-based; details: CAKI-1 (Renal Cancer); 48 h
KMS-11 = assay: Cell viability assay (MTS); type: cell-based; details: Homo sapiens, 72 hours, mean ± standard deviation
Method: (§1) Human multiple myeloma cell lines 8226, H929, JJN3, KMH11, KMS11, KMS18, LP1, MM1S, OPM2 and U266 were grown in Iscove modified Dulbecco's medium (IMDM). Human leukemia cell lines K562, OCI-AML2 and U937 were cultured in RPMI-1640 medium. Primary peripheral blood mononuclear cells were isolated from multiple myeloma patients by Ficoll density gradient centrifugation and bone marrow aspirates were obtained from multiple myeloma patients at the Princess Margaret Cancer Centre of the University Health Network (UHN; Toronto, ON, Canada). Primary cells were cultured in IMDM. The collection and use of human tissue for this study were approved by the UHN institutional ethics review board. All cell culture media were obtained from the Ontario Cancer Institute Tissue Culture Media Facility (Toronto, ON, Canada) and were supplemented with 10% fetal calf serum, […] (Hyclone, Logan, Utah). All cells were grown in a humidified incubator at 37° C. with 5% CO2.
(§2) Cellular viability was primarily assessed by 3-(4,5-dimethylthiazol-2-yl)-5-(3-carboxymethoxyphenyl)-2-(4-sulfophenyl)-2H-tetrazolium (MTS) assay according to the manufacturer's instructions (Promega; Madison, Wis.). Cells were first seeded at a density of 10,000 cells per well in tissue culture-treated 96-well plates. Two hours after seeding, cells were treated with compounds for 72 hours at concentrations as indicated. As a control, cells were treated with DMSO alone in every assay plate. Following treatment and the MTS assay, cell viability was independently confirmed by reading the optical density (O.D.) at 490 nm and by exclusion of trypan blue stain (Invitrogen; Burlington, ON, Canada). The viability of primary mononuclear cells was determined by staining with Annexin V.
(§3) Table 9 summarizes data obtained for representative compounds of Formula I for cell viability and CT-L proteasome activity using OCI-AML-2 and KMS-11 cell lines.

OCI-AML-2 = assay: Cell viability assay (MTS); type: cell-based; details: Homo sapiens, OCI-AML2, 72 hours, mean ± standard deviation
Method: as §1, §2, §3

[1] = system: high molecular weight ubiquitylated proteins in LP1 cells; assay: Immunoblotting assay of ubiquitylated proteins; type: cell-based; details: Homo sapiens, LP-1, read-out: IC50 (increase of ubiquitylated proteins, immunoblot)
Method: Whole cell lysates were prepared from LP1 cells in RIPA lysis buffer. Anti-ubiquitin antibody was purchased from Cell Signaling Technology Inc, (Danvers, Mass.) and anti-tubulin antibody was purchased from Sigma-Aldrich (St. Louis, Mo.). Secondary horseradish peroxidase-conjugated goat anti-mouse or anti-rabbit IgG was purchased from Amersham Bioscience (Piscataway, N.J.). Detection was performed using an enhanced chemiluminescence kit from Pierce, (Rockford, Ill.).

[2] = system: chymotrypsin-like (CT-L) proteasome activity, KMS-11; assay: Proteasome enzymatic activity (tumor cell lysates); type: biochemical, human; details: KMS-11 cell lysate; mean ± standard deviation
Method: (§4) Cells were harvested by centrifugation at 1,200 rpm at room temperature. Cell pellets were washed with PBS and lysed with assay lysis buffer (50 mM HEPES (N-2-hydroxyethylpiperazine-N′-2-ethanesulfonic acid), pH 7.5; 150 mM NaCl; 1% Triton X-100; 2 mM ATP). Cell lysates were incubated on ice for 30 minutes, mixed by vortex every 5 minutes, and then centrifuged at 12,000 g for 10 minutes. The supernatant was transferred to a 96-well plate. For each assay, 10 μg of total protein were incubated for 1 hour at 37° C. with increasing concentrations (1 nM to 10 μM) of test compound diluted in assay buffer (50 mM Tris-HCl (tris(hydroxymethyl)aminomethane-HCl), pH 7.5; 150 mM NaCl). DMSO alone was used as a control in every assay plate. After incubation, a specific fluorogenic proteasome substrate was added to each assay reaction at a final concentration of 40 μM in a total volume of 100 μL. N-Succinyl-Leu-Leu-Val-Tyr-7-amino-4-methylcoumarin (Suc-Leu-Leu-Val-Tyr-AMC) was used for measuring chymotrypsin-like (CT-L) activity, t-butoxycarbonyl-Leu-Arg-Arg-7-amino-4-methylcoumarin (Boc-Leu-Arg-Arg-AMC) for trypsin-like (T-L) activity, and benzyloxycarbonyl-L-leucyl-L-leucyl-L-glutamyl-7-amino-4-methylcoumarin (Z-Leu-Leu-Glu-AMC) for caspase-like (C-L) activity. The excitation wavelength was set at 360 nm and the fluorescence emission wavelength of AMC was detected at 460 nm. The fluorescence of free AMC released during the enzymatic reaction was measured with a SpectraMax M5 fluorescent spectrophotometric plate reader (Molecular Devices, Sunnyvale, Calif.). AMC release rate was measured at 37° C. in a kinetic mode, recording every 5 minutes for 30 minutes. Experiments were performed in triplicate and repeated at least twice.
as §3

[3] = system: chymotrypsin-like (CT-L) proteasome activity, OCI-AML-2; assay: Proteasome enzymatic activity (tumor cell lysates); type: biochemical, human; details: OCI-AML-2 cell lysate; mean ± standard deviation
Method: as §4, §3

| SMILES | Log10GI50 (MOLT-4) | Log10LC50 (MOLT-4) | Log10TGI50 (MOLT-4) | Log10GI50 (SR) | Log10LC50 (SR) | Log10TGI50 (SR) | Log10GI50 (HOP-62) | Log10LC50 (HOP-62) | Log10TGI50 (HOP-62) | Log10GI50 (CAKI-1) | Log10LC50 (CAKI-1) | Log10TGI50 (CAKI-1) | IC50 (KMS-11) | IC50 (OCI-AML-2) | IC50 [1] | IC50 [2] | IC50 [3] |
| --- | --- | --- | --- | --- | --- | --- | --- | --- | --- | --- | --- | --- | --- | --- | --- | --- | --- |
| CC(C)C[C@H](NC(=O)[C@H](Cc1ccccc1)NC(=O)[C@H](COC(F)F)NC(=O)CN1CCOCC1)C(=O)[C@@]1(C)CO1 [Example 25, (2S)-2-[[(2S)-3-(difluoromethoxy)-2-[(2-morpholinoacetyl)amino]propanoyl]amino]-N-[(1S)-3-methyl-1-[(2R)-2-methyloxirane-2-carbonyl]butyl]-3-phenyl-propanamide] | −7.69 | >−4.00 | −7.11 | −7.71 | >−4.00 | >−4.00 | −7.75 | −7.09 | −7.42 | −6.72 | >−4.00 | −6.09 | 39.5 ± 7.45 nM | 55.6 ± 19.2 nM | < 50 nM | – | – |
| C[C@]1(C(=O)[C@H](Cc2ccccc2)NC(=O)[C@H](Cc2ccccc2)NC(=O)[C@H](COC(F)F)NC(=O)CN2CCOCC2)CO1 [Example 29] | −7.54 | >−4.00 | −7.05 | −7.69 | >−4.00 | −4.36 | −7.31 | −4.32 | −6.53 | −6.56 | >−4.00 | −5.94 | 60.4 ± 11.2 nM | 75.9 ± 15 nM | – | 135 ± 12.3 nM | 132 ± 10.4 nM |
| Cc1ncc(C(=O)N[C@@H](COC(F)F)C(=O)N[C@@H](COC(F)F)C(=O)N[C@@H](Cc2ccccc2)C(=O)[C@@]2(C)CO2)s1 [Example 1, 2-methyl-thiazole-5-carboxylic acid ((S)-1-{(S)-1-[(S)-1-benzyl-2-((R)-2-methyloxiranyl)-2-oxo-ethylcarbamoyl]-2-difluoromethoxyethylcarbamoyl}-2-difluoromethoxyethyl)-amide] | −7.37 | >−4.00 | >−4.00 | −7.30 | >−4.00 | >−4.00 | −6.41 | >−4.00 | >−4.00 | −6.40 | >−4.00 | −5.28 | 30.9 ± 10.7 nM | 109 ± 25.3 nM | < 50 nM | 29.6 ± 3.69 nM | 39.2 ± 2.12 nM |
| C[C@]1(C(=O)[C@H](Cc2ccccc2)NC(=O)[C@H](COC(F)F)NC(=O)[C@H](COC(F)F)NC(=O)CN2CCOCC2)CO1 [Example 26, (S)-N-{(S)-1-[(S)-1-Benzyl-2-((R)-2-methyl-oxiranyl)-2-oxo-ethylcarbamoyl]-2-difluoromethoxyethyl}-3-difluoromethoxy-2-(2-morpholin-4-yl-acetylamino)-propio-namide] | −7.69 | >−4.00 | −7.11 | −7.71 | >−4.00 | >−4.00 | −7.75 | −7.09 | −7.42 | −6.72 | >−4.00 | −6.09 | 99.7 ± 17.7 nM | 223 ± 10.3 nM | – | 174 ± 434 nM | 358 ± 177 nM |
